Assay results from ChEMBL document CHEMBL3046514, “Synthesis of novel cyclobutylphosphonic acids as inhibitors of imidazole glycerol phosphate dehydratase” (Tetrahedron, 1997).

Assay: Inhibition of purified Triticum aestivum (wheat) germ imidazole glycerol phosphate dehydratase

Point of comparison: `O[C@@]1(c2nc[nH]n2)CCC[C@H](P(O)(O)=P)C1`, IC50 1800 nM. Against it:
- O=P(O)(O)[C@H]1C[C@@](O)(c2nc[nH]n2)C1 — 150-fold higher, 270000 nM
- O=P(O)(O)[C@@H]1CCC[C@](O)(c2nc[nH]n2)C1 — 100-fold lower, 18 nM
- O=P(O)(O)[C@@H]1CCC[C@](O)(c2nc[nH]n2)C1 (relative stereo) — 45-fold lower, 40 nM
- O=P(O)(O)[C@@H]1CCC[C@@](O)(c2nc[nH]n2)C1 (relative stereo) — 5.6-fold higher, 10000 nM
